Results published in paper PMC10778198, “First-in-Human Dose-Escalation Study of the Novel Oral Depsipeptide Class I-Targeting HDAC Inhibitor Bocodepsin (OKI-179) in Patients with Advanced Solid Tumors” (Cancers, 2023).

System: patients with advanced solid tumors
Assay: phase I dose escalation: safety, DLT, MTD, RP2D (CTCAE v. 5)
Type: in vivo
Conditions: 4:3
Text: Subsequent dosing cohorts were enrolled using a standard 3 + 3 design.
If any patient in any cohort of three patients developed a DLT during cycle 1, an additional three patients were recruited to expand the cohort to up to six evaluable patients. If two or more patients in any expanded cohort developed a DLT, this dose was considered non-tolerated, and dose escalation was discontinued. The MTD was defined as the highest dose level for which no more than one of six patients experienced a DLT.
Patients were continuously evaluated for adverse events throughout the study using the Common Terminology Criteria of Adverse Events (CTCAE v. 5). The patients underwent a clinical history and physical examination, an ECOG PS, a complete blood count (CBCs), chemistry, coagulation studies, urinalysis, a serum pregnancy test (as applicable), a triplicate ECG, an ophthalmology examination, and baseline tumor assessment at screening. During cycle 1, weekly history and physical examination, CBC, chemistry, coagulation parameters, urinalysis, and triplicate ECGs were performed; in subsequent cycles, weekly labs were limited to a CBC. Repeat ophthalmology examinations were performed at cycle 3, day 1, and at the end of treatment. Repeat tumor assessment was performed every 2 cycles (6 weeks) in accordance with RECIST 1.1.

## CC(C)[C@H](N)C(=O)SCC/C=C/[C@@H]1CC(=O)NCc2nc(cs2)C(=O)NC(C)(C)C(=O)N[C@@H](C(C)C)C(=O)O1 [OKI-179, Bocodepsin]
270 mg (n = 3), G2
  TEAE: Dyspnea: 0 n (%)
  TEAE: ECG QT prolonged: 0 n (%)
  TEAE: Fatigue: 1 (33) n (%)
  TEAE: Headache: 0 n (%)
  TEAE: Hypokalaemia: 0 n (%)
  TEAE: Muscular weakness: 0 n (%)
  TEAE: Nasal congestion: 0 n (%)
  TEAE: Nausea: 0 n (%)
  TEAE: Platelet count decreased: 0 n (%)
  TEAE: Proteinuria: 0 n (%)
  TEAE: Pyrexia: 0 n (%)
  TEAE: Vomiting: 0 n (%)
  TEAE: Weight decreased: 0 n (%)
270 mg (n = 3), G3
  TEAE: Anemia: 1 (33) n (%)
  TEAE: Back pain: 0 n (%)
  TEAE: Cough: 0 n (%)
  TEAE: Decreased appetite: 0 n (%)
  TEAE: Diarrhea: 0 n (%)
  TEAE: Dyspnea: 0 n (%)
  TEAE: ECG QT prolonged: 0 n (%)
  TEAE: Fatigue: 0 n (%)
  TEAE: Headache: 0 n (%)
  TEAE: Hypokalaemia: 0 n (%)
  TEAE: Muscular weakness: 0 n (%)
  TEAE: Nasal congestion: 0 n (%)
  TEAE: Nausea: 0 n (%)
  TEAE: Platelet count decreased: 0 n (%)
  TEAE: Proteinuria: 0 n (%)
  TEAE: Pyrexia: 1 (33) n (%)
  TEAE: Vomiting: 0 n (%)
  TEAE: Weight decreased: 0 n (%)
350 mg (n = 3), G1
  TEAE: Anemia: 1 (33) n (%)
  TEAE: Back pain: 0 n (%)
  TEAE: Cough: 0 n (%)
  TEAE: Decreased appetite: 0 n (%)
  TEAE: Diarrhea: 0 n (%)
  TEAE: Dyspnea: 1 (33) n (%)
  TEAE: ECG QT prolonged: 0 n (%)
  TEAE: Fatigue: 0 n (%)
  TEAE: Headache: 0 n (%)
  TEAE: Hypokalaemia: 0 n (%)
  TEAE: Muscular weakness: 0 n (%)
  TEAE: Nausea: 1 (33) n (%)
  TEAE: Platelet count decreased: 2 (67) n (%)
  TEAE: Proteinuria: 0 n (%)
  TEAE: Pyrexia: 0 n (%)
  TEAE: Vomiting: 0 n (%)
  TEAE: Weight decreased: 0 n (%)
350 mg (n = 3), G2
  TEAE: Anemia: 0 n (%)
  TEAE: Back pain: 0 n (%)
  TEAE: Cough: 0 n (%)
  TEAE: Decreased appetite: 1 (33) n (%)
  TEAE: Diarrhea: 0 n (%)
  TEAE: Dyspnea: 0 n (%)
  TEAE: ECG QT prolonged: 0 n (%)
  TEAE: Fatigue: 0 n (%)
  TEAE: Headache: 0 n (%)
  TEAE: Hypokalaemia: 1 (33) n (%)
  TEAE: Muscular weakness: 1 (33) n (%)
  TEAE: Nasal congestion: 0 n (%)
  TEAE: Nausea: 1 (33) n (%)
  TEAE: Platelet count decreased: 0 n (%)
  TEAE: Proteinuria: 0 n (%)
  TEAE: Pyrexia: 0 n (%)
  TEAE: Vomiting: 1 (33) n (%)
  TEAE: Weight decreased: 0 n (%)
350 mg (n = 3), G3
  TEAE: Anemia: 0 n (%)
  TEAE: Back pain: 1 (33) n (%)
  TEAE: Cough: 0 n (%)
  TEAE: Decreased appetite: 0 n (%)
  TEAE: Diarrhea: 0 n (%)
  TEAE: Dyspnea: 0 n (%)
  TEAE: ECG QT prolonged: 1 (33) n (%)
  TEAE: Fatigue: 1 (33) n (%)
  TEAE: Headache: 0 n (%)
